Test results reported in US20030089034A1, “Formulation and method for increasing the essential oil content in aromatic crops” (priority 2001, published 2003).

Experiments:
Type in all cases: in vivo
[1] = test system: Pelargonium graveolens cv. Bipuli; assay: Large scale field testing at several concentrations, essential oil content; settings: for Content of Essential Oil (%): distilled 15 days after spray, water 0.16, LSD (p = 0.05) 0.01
Description: (§1) In the present example, field experiments were conducted, wherein 6 larger plots of Pelargonium graveolens cv. Bipuli (about 25 m^2) were sprayed with solutions of DL-2 amino butyric acid at several different concentrations. An equal number of plots sprayed with sterilized distilled water served as a control group. At least 20 samples of herbage from the sprayed plots and at least 20 samples of herbage from the control plots were distilled in Clevenger type glass apparatus 15 days after spray.

Mentha arvensis cv. Kosi [2] = assay: Optimal crop maturity stage for chemical application, essential oil content; settings: 2 mM spray, LSD (p = 0.05) 0.07
Description: In this example, three of the chemicals described above were further investigated to determine the optimal crop maturity stage for applying the formulation. The three chemicals used in this example were DL-2 amino butyric acid, isonicotinamide, and salicylic acid, all at concentrations of 2 mM. The solutions were tested on Mentha arvensis cv. Kosi planted in a randomized block design with 5 replications. In these experiments, the crops were sprayed at 4 different stages of growth and development including 10-day-old crops, 50-day-old crops, 80-day-old crops, and 100-day-old crops.

[3] = test system: Pelargonium graveolens cv. Bipuli; assay: Further large plot field testing at about 206 mg/L, essential oil content
Description: as §1
(§2) Further field testing involved samples of herbage of both Pelargonium graveolens cv. Bipuli and Mentha arvensis cv. Kosi being treated with a solution of DL-2 amino butyric acid at a concentration of about 206 mg/L in water. Similarly to the above tests, large plots were sprayed with the DL-2 amino butyric acid solution, and samples of herbage from both the sprayed plots and the control plots were examined for their essential oil content.

Mentha arvensis cv. Kosi [4] = assay: as above
Description: as §1, §2

[5] = test system: Pelargonium graveolens cv. Bipuli; assay: Field testing of identified compounds, essential oil content; settings: for Content of Essential Oil (%): 2 mM spray at onset of maturity, 15 days before harvest, water control 0.13, LSD (p = 0.05) 0.01; for change in essential oil content (in words): stated for the field tests of Table 1 (both plants) without naming the plant
Description: (§3) The eight chemicals selected in the previous example for their effects on aromatic plants were subsequently field tested using 2 mM solutions of each chemical in sterilized distilled water. The field tests were performed on Pelargonium graveolens cv. Bipuli and Mentha arvensis cv. […] The plants were sprayed with the 2 mM solutions of the chemicals at the onset of maturity, 15 days before harvest. Plants sprayed with sterilized distilled water served as a control group.

Mentha arvensis cv. Kosi [6] = assay: as above; settings: for Content of Essential Oil (%): 2 mM spray at onset of maturity, 15 days before harvest, water control 0.66, LSD (p = 0.05) 0.06
Description: as §3

[7] = test system: Chamomilla recutita, Artemisia pallens, Pelargonium graveolens, and Mentha arvensis; assay: Screening of resistance-inducing chemicals on potted aromatic plants under glasshouse conditions; settings: plants in pots, four aromatic plants
Excerpt: In this example, fifteen chemicals known to induce resistance in plants were screened by applying the chemicals to four varieties of aromatic plants in pots. The four aromatic plants used in this screening included: Chamomilla recutita, Artemisia pallens, Pelargonium graveolens, and Mentha arvensis. […] These eight chemicals include isonicotinamide, DL-2 amino butyric acid, 4-chlorosalicylic acid, 2-amino isobutyric acid, o-acetyl salicylic acid, amino salicylic acid, salicylic acid, and 5-nitrosalicylic acid.

[8] = age of crop at spray 10 days, water 0.67
[9] = age of crop at spray 50 days, water 0.67
[10] = age of crop at spray 80 days, water 0.68
[11] = age of crop at spray 100 days, water 0.66
[12] = about 206 mg/L, compared to herbage samples treated only with water
[13] = 2 mM spray, versus water control

Row | Structure (SMILES) | Content of Essential Oil (%) ([1]; 0.1 mM solution) | Content of Essential Oil (%) ([1]; 1.0 mM solution) | increase in essential oil content ([1]; 2 mM and 4 mM, versus water) | Content of Essential Oil (%) ([1]; 2.0 mM solution) | Content of Essential Oil (%) ([1]; 4.0 mM solution) | Content of Essential Oil (%) (Mentha arvensis cv. Kosi [2]; [8]) | Content of Essential Oil (%) (Mentha arvensis cv. Kosi [2]; [9]) | Content of Essential Oil (%) (Mentha arvensis cv. Kosi [2]; [10]) | Content of Essential Oil (%) (Mentha arvensis cv. Kosi [2]; [11]) | Content of Essential Oil (Mean % ± S.E.) ([3]; about 206 mg/L in water, n ≧ 20 herbage samples, water 0.14 ± 0.01) | increase in essential oil content [3, 12] | Content of Essential Oil (Mean % ± S.E.) (Mentha arvensis cv. Kosi [4]; about 206 mg/L in water, n ≧ 20 herbage samples, water 0.74 ± 0.02) | increase in essential oil content (Mentha arvensis cv. Kosi [4]; [12]) | Content of Essential Oil (%) [5] | increase in essential oil content [5, 13] | Content of Essential Oil (%) (Mentha arvensis cv. Kosi [6]) | increase in essential oil content (Mentha arvensis cv. Kosi [6]; [13]) | improving growth and herbage and/or essential oil content [7] | change in essential oil content (in words) ([5]; 2 mM spray)
1 | CCC(N)C(=O)O (racemic) [DL-2 amino butyric acid] | 0.16% | 0.17% | about 25% | 0.20% | 0.20% | 0.80% | 0.82% | 0.81% | 0.84% | 0.19 ± 0.01% | about 36% | 0.89 ± 0.02% | about 20% | 0.19% | about 46% | 0.84% | about 27% | particularly effective | 
2 | CC(C)(N)C(=O)O [2-amino isobutyric acid] |  |  |  |  |  |  |  |  |  |  |  |  |  | 0.12% |  | 0.72% |  | particularly effective | 
3 | O=C(O)c1ccc(Cl)cc1O [4-chloro salicylic acid] |  |  |  |  |  |  |  |  |  |  |  |  |  | 0.13% |  | 0.68% |  | particularly effective | 
4 | O=C(O)c1cc([N+](=O)[O-])ccc1O [5-nitrosalicylic acid] |  |  |  |  |  |  |  |  |  |  |  |  |  | 0.13% |  | 0.73% |  | particularly effective | 
5 | NC(=O)c1ccncc1 [isonicotinamide] |  |  |  |  |  | 0.71% | 0.70% | 0.70% | 0.70% |  |  |  |  | 0.14% |  | 0.70% |  | particularly effective | slight increase
6 | O=C(O)c1ccccc1O [salicylic acid] |  |  |  |  |  | 0.70% | 0.68% | 0.70% | 0.70% |  |  |  |  | 0.11% |  | 0.70% |  | particularly effective | slight reduction
